Results reported in patent US20180085374A1, “Use of Morpholino Compounds for the Treatment of Halitosis” (MERIAL INC., priority 2007, published 2018).

Assays:
[1] = system: Volatile Sulphur Compounds (VSCs); experiment: Levels of VSCs following treatment with delmopinol; type: in vivo
[2] = system: oral bacteria; conditions: delmopinol mouthwash; cited from earlier work

For `CCCC(CCC)CCCC1COCCN1CCO` (centres unmarked) [delmopinol, 3-(4-propyl-heptyl)-4-(2-hydroxyethyl)morpholine], the “levels of VSCs” value [1] is listed as “decrease” and the “numbers or proportions of oral bacteria” value [2] is listed as “does not significantly affect”.
